Measurements taken from patent US8426604B2 (Janssen Pharmaceutica NV, priority 2010, dated 2013).

target: T1, ERR1 (also known as ERR-α or ERR-1) (Homo sapiens, UniProt P11474); experiment: TR-FRET assay (disruption of co-activator peptide binding); type: biochemical; conditions: 6His-tagged ERR1LBD, GST-hSRC2 co-activator peptide; average of 3 independent experiments
T1 sequence (P11474 193-421 limits assumed): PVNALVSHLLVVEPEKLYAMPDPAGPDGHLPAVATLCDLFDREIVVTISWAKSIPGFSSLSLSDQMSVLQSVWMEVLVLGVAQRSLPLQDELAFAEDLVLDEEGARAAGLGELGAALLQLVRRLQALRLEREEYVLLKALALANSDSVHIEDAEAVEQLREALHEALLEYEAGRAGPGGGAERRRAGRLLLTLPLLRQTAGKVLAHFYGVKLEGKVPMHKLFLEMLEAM
Description: Time-Resolved Fluorescence Resonance Energy Transfer (TR-FRET) experiments were performed to examine the functional response of ERR1 (also known as ERR-α or ERR-1) ligands. The TR-FRET assay described herein relied on the conformation of ERR1 for binding to a co-activator peptide: when a test compound binds to ERR1 and alters its conformation, it can disrupt the binding of the co-activator peptide. The components of this homogeneous secondary assay included: the ^6His-tagged-ERR1LBD, a GST-labeled-hSRC2 co-activator polypeptide and a fluorescent donor/acceptor pair from CIS bio international htrf/bioassays (Bedford, Mass.) using both an α-GST Europium Cryptate (Eu) label and an α^6His-XL665 (allophycocyanin) fluorophore.
For TR-FRET measurements, the reaction was buffered in 25 mM Tris pH 8, 2.5 mM Hepes, 20 mM KCl, 1 mM DTT, and 0.05 mg/mL BSA (-lipids). The final concentrations of reagents were 6 nM of ERR1LBD, 6 nM GST-SRC-2 peptide, 30 nM Eu cryptate, and 7.5 nM XL665. Reactions were allowed to reach equilibrium at 25° C. for 4-18 hours before collecting data on the Analyst from LJL Biosystems (Molecular Devices Sunnyvale, Calif.). As a time-resolved method, the samples were excited at […] and emission was collected for 1 ms at both 615 and 665 nm with delays of 400 and 75 μs, respectively. Dose response curves were fitted using a hyperbolic equation and the data reported is the average of 3 independent experiments.

| Structure (SMILES) | EC50 [nM] |
| --- | --- |
| CN(C1=NC(=O)/C(=C/c2ccc3c(cnn3Cc3ccc(C(F)(F)F)cc3C(F)(F)F)c2)S1)C1CCNC1 (stereo not shown) [Compound 28, 5-[1-(2,4-Bis-trifluoromethyl-benzyl)-1H-indazol-5-ylmethylene]-2-(methyl-pyrrolidin-3-yl-amino)-thiazol-4-one] | 30 |
| CN1CCC(N(C)C2=NC(=O)/C(=C/c3ccc4c(cnn4Cc4ccc(C(F)(F)F)cc4C(F)(F)F)c3)S2)C1 (stereo not shown) [Compound 29, 5-[1-(2,4-Bis-trifluoromethyl-benzyl)-1H-indazol-5-ylmethylene]-2-[methyl-(1-methyl-pyrrolidin-3-yl)-amino]-thiazol-4-one] | 67 |
| CN(CCO)C1=NC(=O)/C(=C/c2ccc3c(cnn3Cc3ccc(Cl)cc3C(F)(F)F)c2)S1 [Compound 30, 5-[1-(4-Chloro-2-trifluoromethyl-benzyl)-1H-indazol-5-ylmethylene]-2-[(2-hydroxy-ethyl)-methyl-amino]-thiazol-4-one] | 12 |
| CN(C[C@H](O)c1ccc(O)cc1)C1=NC(=O)/C(=C/c2ccc3c(cnn3Cc3ccc(Cl)cc3C(F)(F)F)c2)S1 [Compound 31, (R)-5-[1-(4-Chloro-2-trifluoromethyl-benzyl)-1H-indazol-5-ylmethylene]-2-{[2-hydroxy-2-(4-hydroxy-phenyl)-ethyl]-methyl-amino}-thiazol-4-one] | 31 |
| CCN(CC)CCN(C)C1=NC(=O)/C(=C/c2ccc3c(cnn3Cc3ccc(Cl)cc3C(F)(F)F)c2)S1 [Compound 32, 5-[1-(4-Chloro-2-trifluoromethyl-benzyl)-1H-indazol-5-ylmethylene]-2-[(2-diethylamino-ethyl)-methyl-amino]-thiazol-4-one] | 15 |
| CN(CCCn1cccn1)C1=NC(=O)/C(=C/c2ccc3c(cnn3Cc3ccc(Cl)cc3C(F)(F)F)c2)S1 [Compound 33, 5-[1-(4-Chloro-2-trifluoromethyl-benzyl)-1H-indazol-5-ylmethylene]-2-[methyl-(3-pyrazol-1-yl-propyl)-amino]-thiazol-4-one] | 13 |
| CN1CCC(CN(C)C2=NC(=O)/C(=C/c3ccc4c(cnn4Cc4ccc(Cl)cc4C(F)(F)F)c3)S2)C1 (stereo not shown) [Compound 34, 5-[1-(4-Chloro-2-trifluoromethyl-benzyl)-1H-indazol-5-ylmethylene]-2-[methyl-(1-methyl-pyrrolidin-3-ylmethyl)-amino]-thiazol-4-one] | 17 |
| CN1CCC(N(C)C2=NC(=O)/C(=C/c3ccc4c(cnn4Cc4ccc(Cl)cc4C(F)(F)F)c3)S2)C1 (stereo not shown) [Compound 35, 5-[1-(4-Chloro-2-trifluoromethyl-benzyl)-1H-indazol-5-ylmethylene]-2-[methyl-(1-methyl-pyrrolidin-3-yl)-amino]-thiazol-4-one] | 18 |
| CN(CC1(CO)CC1)C1=NC(=O)/C(=C/c2ccc3c(cnn3Cc3ccc(Cl)cc3C(F)(F)F)c2)S1 [Compound 36, 5-[1-(4-Chloro-2-trifluoromethyl-benzyl)-1H-indazol-5-ylmethylene]-2-[(1-hydroxymethyl-cyclopropylmethyl)-methyl-amino]-thiazol-4-one] | 21 |
| CCOC(=O)N1CCC(N(C)C2=NC(=O)/C(=C/c3ccc4c(cnn4Cc4ccc(Cl)cc4C(F)(F)F)c3)S2)CC1 [Compound 37, 4-({5-[1-(4-Chloro-2-trifluoromethyl-benzyl)-1H-indazol-5-ylmethylene]-4-oxo-4,5-dihydro-thiazol-2-yl}-methyl-amino)-piperidine-1-carboxylic acid ethyl ester] | 69 |
| CN(CCC#N)C1=NC(=O)/C(=C/c2ccc3c(cnn3Cc3ccc(Cl)cc3C(F)(F)F)c2)S1 [Compound 38, 3-({5-[1-(4-Chloro-2-trifluoromethyl-benzyl)-1H-indazol-5-ylmethylene]-4-oxo-4,5-dihydro-thiazol-2-yl}-methyl-amino)-propionitrile] | 26 |
| C=CCN(C)C1=NC(=O)/C(=C/c2ccc3c(cnn3Cc3ccc(Cl)cc3C(F)(F)F)c2)S1 [Compound 39, 2-(Allyl-methyl-amino)-5-[1-(4-chloro-2-trifluoromethyl-benzyl)-1H-indazol-5-ylmethylene]-thiazol-4-one] | 25 |
| COC[C@@H]1CC(N(C)C2=NC(=O)/C(=C/c3ccc4c(cnn4Cc4ccc(C(F)(F)F)cc4C(F)(F)F)c3)S2)CN1 (stereo partly shown) [Compound 40, 5-[1-(2,4-Bis-trifluoromethyl-benzyl)-1H-indazol-5-ylmethylene]-2-[(5-methoxymethyl-pyrrolidin-3-yl)-methyl-amino]-thiazol-4-one] | 21 |
| CN(C1=NC(=O)/C(=C/c2ccc3c(cnn3Cc3ccc(C(F)(F)F)cc3C(F)(F)F)c2)S1)C1CN[C@H](CO)C1 (stereo partly shown) [Compound 43, 5-[1-(2,4-Bis-trifluoromethyl-benzyl)-1H-indazol-5-ylmethylene]-2-[(5-hydroxymethyl-pyrrolidin-3-yl)-methyl-amino]-thiazol-4-one] | 30 |
| COC[C@@H]1CC(N(C)C2=NC(=O)/C(=C/c3ccc4c(cnn4Cc4ccc(C(F)(F)F)cc4C(F)(F)F)c3)S2)CN1C (stereo partly shown) [Compound 44, 5-[1-(2,4-Bis-trifluoromethyl-benzyl)-1H-indazol-5-ylmethylene]-2-[(5-methoxymethyl-1-methyl-pyrrolidin-3-yl)-methyl-amino]-thiazol-4-one] | 32 |
| CN(CC(O)CN)C1=NC(=O)/C(=C/c2ccc3c(cnn3Cc3ccc(Cl)cc3C(F)(F)F)c2)S1 (stereo not shown) [Compound 45, 2-[(3-Amino-2-hydroxy-propyl)-methyl-amino]-5-[1-(4-chloro-2-trifluoromethyl-benzyl)-1H-indazol-5-ylmethylene]-thiazol-4-one] | 120 |
| CN(Cc1cccnc1)C1=NC(=O)/C(=C/c2ccc3c(cnn3Cc3ccc(Cl)cc3C(F)(F)F)c2)S1 [Compound 46, 5-[1-(4-Chloro-2-trifluoromethyl-benzyl)-1H-indazol-5-ylmethylene]-2-(methyl-pyridin-3-ylmethyl-amino)-thiazol-4-one] | 22 |
| COCCN1CCC(CN(C)C2=NC(=O)/C(=C/c3ccc4c(cnn4Cc4ccc(Cl)cc4C(F)(F)F)c3)S2)C1 (stereo not shown) [Compound 47, 5-[1-(4-Chloro-2-trifluoromethyl-benzyl)-1H-indazol-5-ylmethylene]-2-{[1-(2-methoxy-ethyl)-pyrrolidin-3-ylmethyl]-methyl-amino}-thiazol-4-one] | 17 |
| CN(C1=NC(=O)/C(=C/c2ccc3c(cnn3Cc3ccc(Cl)cc3C(F)(F)F)c2)S1)C1CNC1 [Compound 48, 2-(Azetidin-3-yl-methyl-amino)-5-[1-(4-chloro-2-trifluoromethyl-benzyl)-1H-indazol-5-ylmethylene]-thiazol-4-one] | 43 |
| CNCC(O)CN(C)C1=NC(=O)/C(=C/c2ccc3c(cnn3Cc3ccc(Cl)cc3C(F)(F)F)c2)S1 (stereo not shown) [Compound 49, 5-[1-(4-Chloro-2-trifluoromethyl-benzyl)-1H-indazol-5-ylmethylene]-2-[(2-hydroxy-3-methylamino-propyl)-methyl-amino]-thiazol-4-one] | 41 |
| CN(CC(O)CN1CCCC1)C1=NC(=O)/C(=C/c2ccc3c(cnn3Cc3ccc(Cl)cc3C(F)(F)F)c2)S1 (stereo not shown) [Compound 50, 5-[1-(4-Chloro-2-trifluoromethyl-benzyl)-1H-indazol-5-ylmethylene]-2-[(2-hydroxy-3-pyrrolidin-1-yl-propyl)-methyl-amino]-thiazol-4-one] | 23 |
| CCN(CC)CCN(C)C1=NC(=O)/C(=C/c2ccc3c(c2)c(I)nn3Cc2ccc(C(F)(F)F)cc2C(F)(F)F)S1 [Compound 51, 5-[1-(2,4-Bis-trifluoromethyl-benzyl)-3-iodo-1H-indazol-5-ylmethylene]-2-[(2-diethylamino-ethyl)-methyl-amino]-thiazol-4-one] | 11 |
| CC(C(N)=O)N1CCC(N(C)C2=NC(=O)/C(=C/c3ccc4c(cnn4Cc4ccc(C(F)(F)F)cc4C(F)(F)F)c3)S2)CC1 (stereo not shown) [Compound 53, 2-(4-{[-5-({1-[2,4-Bis(trifluoromethyl)benzyl]-1H-indazol-5-yl}methylidene)-4-oxo-4,5-dihydro-1,3-thiazol-2-yl](methyl)amino}piperidin-1-yl)propionamide] | 24 |
| CN(C1=NC(=O)/C(=C/c2ccc3c(cnn3Cc3ccc(Cl)cc3C(F)(F)F)c2)S1)[C@H]1CCNC[C@H]1F [Compound 54, 5-({1-[4-Chloro-2-(trifluoromethyl)benzyl]-1H-indazol-5-yl}methylidene)-2-{[(3R,4S)-3-fluoropiperidin-4-yl](methyl)amino}-1,3-thiazol-4(5H)-one] | 21 |
| CN(C1=NC(=O)/C(=C/c2ccc3c(cnn3Cc3ccc(Cl)cc3C(F)(F)F)c2)S1)[C@H]1CCN(CC(N)=O)C[C@H]1F [Compound 55, 2-[(3R,4S)-4-{[-5-({1-[4-Chloro-2-(trifluoromethyl)benzyl]-1H-indazol-5-yl}methylidene)-4-oxo-4,5-dihydro-1,3-thiazol-2-yl](methyl)amino}-3-fluoropiperidin-1-yl]acetamide] | 13 |
